Measured values taken from patent publication US20120231025A1 (priority 2009, published 2012).
Entries after “also recorded” stand apart in the source; their conditions may differ. Read-outs that look alike come from different tables or passages of the source.

Experiments:
[1] = system: bone marrow cells; conditions: bone marrow cells irradiated with 1 Gy, injected into lethally irradiated recipients (8 Gy); peptide 10 ug per kg intraperitoneally 15-30 minutes after the cells; cited from earlier work
[2] = system: allogeneic lymphocytes; conditions: H-2d anti H-2b, cited from earlier work
[3] = system: hematopoietic cells; conditions: cited from earlier work
[4] = system: peripheral blood mononuclear cells (PBMC); assay: MIMIC peripheral tissue equivalent (PTE) assay; type: cell-based, human
[5] = system: influenza antigen; type: in vivo, Balb/c mice
[6] = system: spleen and thymus; conditions: mice irradiated 2 Gy, peptide 10 μg/kg, cited from earlier work
[7] = system: antibody forming cells; conditions: cited from earlier work
[8] = system: influenza of the H1N2, H3N2, and B strains; design: species or system Balb/c mice; conditions: mouse, in vivo
[9] = system: T-cells in spleen; conditions: peptide 10 μg/kg, cited from earlier work

Ala-Glu-Trp-OH
Number of CFU-S [1]: 8.7 ± 0.4

Glu-Trp-OH
Number of CFU-S [1]: 10.5 ± 0.3

H-L-Ile-L-Glu-L-Trp-OH [Neogen]
Proliferation of allogeneic lymphocytes in MLC ([2]; peptide 0.1 μg/mL): negligible inhibition of the proliferation
Proliferation of allogeneic lymphocytes in MLC ([2]; peptide 1, 10, and 20 μg/mL): stimulated proliferation of the allogeneic lymphocytes
Hemoglobin levels ([3]; animals first irradiated and then treated, U.S. Pat. No. 6,159,950, Example 8): more rapidly restored hemoglobin levels
Antibody forming cells (AFC) after challenge with sheep erythrocytes ([3]; irradiated mice, U.S. Pat. No. 6,159,950, Example 4): making antibody forming cells (AFC) against the challenge
Cell-surface expression of HLA-DR on dendritic cells [4]: primed for antigen presentation
Dendritic cells migrating (reverse transmigrating) across the HUVEC layer ([4]; Neogen alone, preliminary): fewer dendritic cells migrating across the HUVEC layer; also recorded: reduced the number of cells found to reverse transmigrate
Number of dendritic cells recovered ([4]; Neogen alone, preliminary): did not
Number of dendritic cells recovered ([4]; Neogen in the presence of antigen, preliminary): increased the number of dendritic cells recovered from the system
Dendritic cells migrating (reverse transmigrating) across the HUVEC layer ([4]; Neogen plus antigen, preliminary): fewer dendritic cells migrating across the HUVEC layer; also recorded: reduced the number of cells found to reverse transmigrate
Differentiation of donor PBMCs into macrophages and dendritic cells ([4]; as little as 1 ug/mL of Neogen in the presence of antigen, preliminary): enhanced the ability of donor PBMCs to differentiate into macrophages and dendritic cells
IgG1 levels (area-under-the-curve analysis) ([5]; low-dose Neogen with Vaxigrip compared with Vaxigrip alone): statistically significant increase in IgG1 levels
IgG1 response ([5]; mouse, in vivo): progressively lower IgG1 responses
IgG2a response ([5]; mouse, in vivo): higher IgG2a responses
Karyocyte count in thymus ([6]; 3 and 4 injections): a certain growth of the karyocyte count in thymus
Karyocyte count in spleen per mg of organ weight ([6]; one and four injections): increase in the karyocyte count in spleen
AFC increase, humoral response to SE ([7]; intact mice, peptide 10 μg/kg intramuscularly, 3 or 4 times): 5 times
Number of antibody forming cells ([7]; mice irradiated 2 Gy, peptide 10 μg/kg, 3 and 4 injections): practically doubled
HI titer [8]: higher response than any of the other groups; also recorded: higher HI response
HI titer ([8]; sc): no HI titer
Number of CFU-S [1]: 11.5 ± 0.3
T-cell count ([9]; intact mice, 3 or 4 times): being the same as it was
T-cell count in spleen ([9]; mice irradiated 2 Gy, 1 to 4 injections, especially three or four): grew in all mice who received the peptide injections

Ile-Glu-(Trp)-OH
Number of CFU-S [1]: 8.5 ± 0.5

Ile-Glu-Trp-NH2
Number of CFU-S [1]: 7.9 ± 0.4

Leu-Glu-Trp-OH
Number of CFU-S [1]: 6.5 ± 0.5

Lys-Glu-(Trp)-OH
Number of CFU-S [1]: 5.9 ± 0.5

Lys-Glu-(Trp-NH2)-OH
Number of CFU-S [1]: 5.9 ± 0.4

Lys-Glu-Trp-OH
Number of CFU-S [1]: 6.2 ± 0.4

Phe-Glu-Trp-OH
Number of CFU-S [1]: 6.6 ± 0.3

Pyro-Glu-Trp-OH
Number of CFU-S [1]: 9.3 ± 0.4

Tyr-Glu-Trp-OH
Number of CFU-S [1]: 7.3 ± 0.4

Val-Glu-Trp-OH
Number of CFU-S [1]: 8.2 ± 0.3

iGlu-Trp-OH
Number of CFU-S [1]: 10.1 ± 0.5
